Test results published in patent publication US20230024521A1, “JAK INHIBITORS” (Vimalan Biosciences, Inc., priority 2019, published 2023).
Like-named read-outs stand apart in the source and are kept apart here.

Columns and labels:
[1] = system: JAK2: GM-CSF stimulated STAT5 phosphorylation; assay: Co-stimulation assay in lysed whole blood; JAK2: GM-CSF stimulated STAT5 phosphorylation; assay type: cell-based, human
Procedure: Example C: Co-Stimulation Assay in Lysed Whole Blood; JAK2: GM-CSF Stimulated STAT5 Phosphorylation and JAK1/TYK2 Stimulated STAT1 Phosphorylation Assay
Human Blood Lysis using abcam's RBC lysis buffer
Dilute RBC lysis buffer to 1× in distilled water. Add 2 mL blood to 38 mL of 1×RBC-lysis buffer. Incubate for 15 mins at RT, in dark. Spin at 300 g, 5 mins, to collect the pellet. Re-lyse if necessary. Re-suspend pellet in 5 mL of cRPMI.
Aliquot 80 μL of lysed human blood in to wells of 96 deep-well plate. Add 10 μl of (10× conc.) of different concentrations of compounds to all wells except controls (unstained and unstimulated) and mix it with the help of 100 uL multichannel Add 10 uL of RPMI media in controls. For dilution of compounds and dilution range please refer Appendix. Incubate on water bath or CO2 incubator for 1 hour at 37° C. Add 10 μl of (10× conc.) of cytokine mix (GM-CSF and IFNa) (final conc. 10 ng/mL of GM-CSF and 100 ng/mL of IFNa) to each well except unstimulated and unstained controls and incubate further for 20 minutes on water bath at 37° C.
Add 900 μL of prewarmed 1× Fix/Lyse solution (Appendix) and mix it properly using 1000 μl multichannel, incubate further on water bath at 37° C. for 10 minutes (which includes time of addition). Centrifuge at 800×g for 5 minutes at 40° C.; remove 900 uL of supernatant and add 900 μL of 1×PBS. Centrifuge at 800×g for 5 minutes at 40° C., remove 900 μL of supernatant. Wash one more time with 900 μL of PBS (optional) and resuspend pellets in 100 uL of PBS.
Disrupt the pellet by gentle tapping and resuspend in 1000 μL of BD Phosflow Perm Buffer III and incubate plate on ice for 30 minutes. Centrifuge plate at 800×g for 5 minutes at 40° C. Wash two more times with 1000 μL of BD Pharmingen Stain Buffer.
Disrupt the pellet by gentle tapping. Resuspend pellets in 100 uL of Stain Buffer and add 5 μL of pSTAT5_AF488 Ab and 5 uL of pSTAT1_PE in all wells except unstained control and mix properly using 200 μl multichannel, incubate overnight at […]. Add 900 μL of wash buffer and centrifuge at 1800 rpm for 3 minutes at […]. Wash one more time with 1000 μL of BD Pharmingen Stain Buffer. Finally resuspend the pellet in 300 uL of BD Pharmingen Stain Buffer. Transfer the cells to 96-well v-bottom plate and acquire the cells in Beckman Coulter CytExpert. Acquiring cells in Flow Cytometer: Keep the threshold value to 250 and cell concentration should not exceed 100-500 cells/4. Acquire at least 5,000-10,000 cells.
(§1) RPMI 1640 Complete Medium: RPMI 1640 media+10% FBS.
Cytokine dilution: 1) GM-CSF Stock at 100 ug/mL. Prepare an intermediate dilution of 1 ug/mL by adding 2 uL of stock into 198 uL of cRPMI. Further dilute to 100 ng/mL by adding 100 uL of the intermediate stock to 900 uL of cRPMI. 2) IFNa Stock at 200 ug/mL. Dilute IFNa stock 1:200 by adding 5 uL of stock into the 1000 uL of 100 ng/mL GM-CSF working stock as above to give a combined working stock of 1000 ng/mL of IFNa and 100 ng/mL GM-CSF (10×). Keep it on ice until used.
(§2) Lyse/Fix buffer preparation: Dilute 5× Lyse/Fix buffer to 1× using MQ water and keep at 37° C. until used.
(§3) BD Phosflow perm buffer III: Keep on ice/fridge

[2] = system: JAK1/JAK3: IL-2 stimulated STAT5 phosphorylation; assay: JAK1/JAK3: IL-2 stimulated STAT5 phosphorylation in PBMCs; assay type: cell-based, human; conditions: PBMC
Procedure: Example B: JAK1/JAK3: IL-2 Stimulated STAT5 Phosphorylation in PBMCs
Human PBMCs: (Precision Biomedicine)
Thaw as per instructions. Thaw frozen PBMCs in 37° C. water bath. Transfer cell suspension to 9 mL of pre-warmed complete media (RPMI+10% FBS+L-Glu+Pen/Strep). Centrifuge at 400×g for 5 min and wash cells with 10 mL of complete media. Resuspend pellet for a cell-count of 3×10^6 cells/mL
Seed cells into 96-deep well at 80 uL/well based on experimental plate layout. Add 10 μL of (10× conc.) of different concentrations of compounds to all wells except controls (unstimulated) and mix it with 200 uL multichannel pipet. Add 10 uL of complete RPMI media with same % DMSO in controls. For dilution of compounds and dilution range please refer to appendix. Incubate in 5% CO2 incubator for 1 hour at 37° C. Add 10 μL of (10× conc.) IL-2 (final conc. 50 ng/mL) to each well except unstimulated and unstained controls and incubate further for 20 minutes in water bath at 37° C.
Add 900 μL of prewarmed 1× Fix/Lyse solution (Appendix) and mix it properly using 1000 μL multichannel pipet; incubate further on water bath at 37° C. for 10 minutes. Centrifuge at 800×g for 5 minutes, remove 900 uL of supernatant, and add 1000 μL of freshly prepared wash buffer or 1× PBS. Centrifuge at 800×g for 5 minutes, remove 900 μL of supernatant, and resuspend the pellet in remaining buffer.
Disrupt the pellet by gentle tapping and add 1000 μL of ice cold BD Phosflow Perm Buffer III and incubate further on ice for 30 minutes. Centrifuge at 800×g for 5 minutes. Wash two more times with 1000 μL of BD Stain buffer, remove supernatant except 100 uL of buffer after the last wash.
Disrupt the pellet by gentle tapping, add 100 uL of stain buffer and 5 μL of pSTAT5_Alex488 […] in all appropriate wells and mix properly using 200 μL multichannel pipet. Incubate plate overnight at […]. Add 900 μL of BD stain buffer and centrifuge at 800×g for 5 minutes. Wash one additional time with 1000 μL of buffer. Finally resuspend the pellet in 300 uL of BD stain buffer.
Transfer the cells to 96-well v-bottom plate and acquire the cells in Beckman Coulter Cytoflex. Acquiring cells in Flow Cytometer: Keep the threshold value to 250. Acquire at least 8,000-10,000 cells.
as §1
Cytokine dilution: 1) IL-2 Stock at 100 ug/mL. Prepare a 0.5 ug/mL dilution by adding 5 uL of stock into 995 uL of cRPMI. Keep it on ice until used.
as §2, §3

[3] = lysed human whole blood, GM-CSF 10 ng/mL (with IFNa 100 ng/mL), pSTAT5 by flow cytometry, read-out: GMCSF/J2/pS5: GeoMean
[4] = human PBMCs, IL-2 50 ng/mL, pSTAT5 by flow cytometry, read-out: IL-2/J1J3/pS5: IC50 GeoMean
[5] = Homo sapiens, read-out: GMCSF/J2/pS5: GeoMean (nM)
[6] = Homo sapiens, read-out: IL-2/J1J3/pS5: IC50 GeoMean (nM)

SMILES	IC50 [1, 3]	IC50 [2, 4]	IC50 [1, 5]	IC50 [2, 6]
CCC(CC)Cn1ccc2cnc(Nc3cnn(CC(N)=O)c3)nc21 [Example 7, 2-(4-((7-(2-ethylbutyl)-7H-pyrrolo[2,3-d]pyrimidin-2-yl)amino)-1H-pyrazol-1-yl) acetamide]	100 to 1000 nM	< 100 nM	–	–
CC[C@@H](Cn1ccc2cnc(Nc3cnn(C4CCNC4=O)c3)nc21)C(C)C (some centres unmarked) [Example 8]	–	–	1000 to 10000 nM	< 100 nM
CC[C@H](Cn1ccc2cnc(Nc3cnn(CC(=O)N4CCOC4=O)c3)nc21)C(C)C [Example 3, (5)-3-(2-(4-((7-(2-ethyl-3-methylbutyl)-7H-pyrrolo[2,3-d]pyrimidin-2-yl)amino)-1H-pyrazol-1-yl)acetyl) oxazolidin-2-one]	–	–	1000 to 10000 nM	< 100 nM
CC[C@H](Cn1ccc2cnc(Nc3cnn(CC(N)=O)c3)nc21)C(C)C [Example 1, (S)-2-(4-((7-(2-ethyl-3-methylbutyl)-7H-pyrrolo[2,3-d]pyrimidin-2-yl)amino)-1H-pyrazol-1-yl) acetamide]	100 to 1000 nM	< 100 nM	–	–
